Assay results reported in patent publication US6077680A (The University of Florida, dated 2000).

Experiments:
[1] = system: Kv1.3(D386→K); format: cell-based
[2] = system: rat brain membrane K channels (primarily Kv1.2); format: binding
[3] = target: Kv1.3 potassium channels in Jurkat T lymphocytes (Homo sapiens, UniProt P22001); format: cell-based
[4] = target: T1, Kv1.3 (Mus musculus, UniProt P16390); experiment: cell-based; format: cell-based
[5] = target: IKCa (hKCa4) (Homo sapiens, UniProt O15554); format: cell-based
IKCa (hKCa4), sequence (O15554 whole entry): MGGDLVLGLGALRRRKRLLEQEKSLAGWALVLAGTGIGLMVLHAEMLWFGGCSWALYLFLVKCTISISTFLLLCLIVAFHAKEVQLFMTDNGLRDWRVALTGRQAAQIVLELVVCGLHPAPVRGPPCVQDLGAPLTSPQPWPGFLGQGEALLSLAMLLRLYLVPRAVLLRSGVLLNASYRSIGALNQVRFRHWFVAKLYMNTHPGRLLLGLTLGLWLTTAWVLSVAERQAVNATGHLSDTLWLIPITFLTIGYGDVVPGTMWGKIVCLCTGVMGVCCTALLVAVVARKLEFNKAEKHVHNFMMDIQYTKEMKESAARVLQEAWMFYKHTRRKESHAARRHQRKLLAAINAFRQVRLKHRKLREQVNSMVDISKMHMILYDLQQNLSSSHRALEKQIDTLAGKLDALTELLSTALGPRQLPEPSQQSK

[6] = target: Kv3.1 (Mus musculus, UniProt P15388); format: cell-based
Kv3.1, sequence (P15388 whole entry): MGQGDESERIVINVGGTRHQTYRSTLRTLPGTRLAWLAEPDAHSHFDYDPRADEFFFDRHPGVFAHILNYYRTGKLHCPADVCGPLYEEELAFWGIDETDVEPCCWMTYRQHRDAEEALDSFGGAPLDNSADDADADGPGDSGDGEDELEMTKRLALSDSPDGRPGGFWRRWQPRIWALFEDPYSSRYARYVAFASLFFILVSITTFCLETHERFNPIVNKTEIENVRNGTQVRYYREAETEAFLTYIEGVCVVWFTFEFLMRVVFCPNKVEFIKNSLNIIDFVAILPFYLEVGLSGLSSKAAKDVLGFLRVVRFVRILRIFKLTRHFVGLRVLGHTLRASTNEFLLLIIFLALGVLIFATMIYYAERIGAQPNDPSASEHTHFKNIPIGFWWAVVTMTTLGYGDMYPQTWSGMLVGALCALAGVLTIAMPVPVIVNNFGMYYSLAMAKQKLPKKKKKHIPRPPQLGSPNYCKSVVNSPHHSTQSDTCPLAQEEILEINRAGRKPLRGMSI

[7] = target: Kv1.3 channels in Jurkat T lymphocytes (Homo sapiens, UniProt P22001); format: binding
Kv1.3 channels in Jurkat T lymphocytes, sequence (P22001 whole entry): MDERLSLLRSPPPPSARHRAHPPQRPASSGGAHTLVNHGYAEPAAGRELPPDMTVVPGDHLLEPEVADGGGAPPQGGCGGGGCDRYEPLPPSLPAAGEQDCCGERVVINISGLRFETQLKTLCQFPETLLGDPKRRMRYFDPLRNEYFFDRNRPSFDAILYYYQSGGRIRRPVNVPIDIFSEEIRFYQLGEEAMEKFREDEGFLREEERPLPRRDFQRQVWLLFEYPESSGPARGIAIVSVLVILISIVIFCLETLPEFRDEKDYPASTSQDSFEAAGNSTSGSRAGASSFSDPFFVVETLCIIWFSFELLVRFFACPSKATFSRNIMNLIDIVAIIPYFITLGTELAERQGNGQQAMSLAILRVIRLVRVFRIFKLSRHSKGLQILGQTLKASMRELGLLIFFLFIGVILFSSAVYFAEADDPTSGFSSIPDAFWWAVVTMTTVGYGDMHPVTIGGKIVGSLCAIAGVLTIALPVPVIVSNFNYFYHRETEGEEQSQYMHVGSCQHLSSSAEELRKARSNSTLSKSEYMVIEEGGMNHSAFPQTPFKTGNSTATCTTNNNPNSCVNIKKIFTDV

[8] = target: T1, Kv1.3; format: cell-based
[9] = target: Kv1.2 (Rattus norvegicus, UniProt P63142); format: cell-based
Kv1.2, sequence (P63142 whole entry): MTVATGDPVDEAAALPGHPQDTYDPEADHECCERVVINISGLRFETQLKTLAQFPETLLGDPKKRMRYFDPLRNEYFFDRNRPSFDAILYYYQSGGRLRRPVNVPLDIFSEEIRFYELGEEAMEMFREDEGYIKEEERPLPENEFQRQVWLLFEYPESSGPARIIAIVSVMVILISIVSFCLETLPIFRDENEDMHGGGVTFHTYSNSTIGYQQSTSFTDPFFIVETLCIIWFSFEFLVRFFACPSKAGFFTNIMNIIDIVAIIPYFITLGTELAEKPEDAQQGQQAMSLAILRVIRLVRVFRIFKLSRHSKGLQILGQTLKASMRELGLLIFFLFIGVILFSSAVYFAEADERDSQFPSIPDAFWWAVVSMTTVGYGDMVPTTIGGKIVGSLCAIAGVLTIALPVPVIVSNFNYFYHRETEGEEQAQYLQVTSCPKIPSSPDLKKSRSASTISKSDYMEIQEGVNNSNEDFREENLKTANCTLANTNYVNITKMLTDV

[10] = system: pepsin A, pancreatic elastase, subtilisin, trypsin-chymotrypsin, thermolysin
[11] = target: Kv1.5 (Homo sapiens, UniProt P22460); format: cell-based
Kv1.5, sequence (P22460 whole entry): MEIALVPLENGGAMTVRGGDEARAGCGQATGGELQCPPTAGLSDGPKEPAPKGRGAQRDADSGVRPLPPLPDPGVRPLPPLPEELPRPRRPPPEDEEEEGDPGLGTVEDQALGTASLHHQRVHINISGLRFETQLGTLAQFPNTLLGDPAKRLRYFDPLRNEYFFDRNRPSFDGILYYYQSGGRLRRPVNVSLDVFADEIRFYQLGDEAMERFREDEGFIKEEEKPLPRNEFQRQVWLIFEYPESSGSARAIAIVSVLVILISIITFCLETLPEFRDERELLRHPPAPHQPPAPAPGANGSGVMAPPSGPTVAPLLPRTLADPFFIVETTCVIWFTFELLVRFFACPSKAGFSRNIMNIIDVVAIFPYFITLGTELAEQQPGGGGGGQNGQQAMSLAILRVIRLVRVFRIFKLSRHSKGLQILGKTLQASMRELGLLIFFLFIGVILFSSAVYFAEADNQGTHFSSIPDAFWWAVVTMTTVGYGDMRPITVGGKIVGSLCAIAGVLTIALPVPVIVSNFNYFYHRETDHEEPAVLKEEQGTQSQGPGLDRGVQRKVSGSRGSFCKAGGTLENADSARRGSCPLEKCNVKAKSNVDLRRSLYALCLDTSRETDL

[12] = system: Kv1.1, Kv1.2, Kv1.5, Kv3.1, hKCa4 relative to Kv1.3; format: cell-based

T1 sequence (P16390 whole entry): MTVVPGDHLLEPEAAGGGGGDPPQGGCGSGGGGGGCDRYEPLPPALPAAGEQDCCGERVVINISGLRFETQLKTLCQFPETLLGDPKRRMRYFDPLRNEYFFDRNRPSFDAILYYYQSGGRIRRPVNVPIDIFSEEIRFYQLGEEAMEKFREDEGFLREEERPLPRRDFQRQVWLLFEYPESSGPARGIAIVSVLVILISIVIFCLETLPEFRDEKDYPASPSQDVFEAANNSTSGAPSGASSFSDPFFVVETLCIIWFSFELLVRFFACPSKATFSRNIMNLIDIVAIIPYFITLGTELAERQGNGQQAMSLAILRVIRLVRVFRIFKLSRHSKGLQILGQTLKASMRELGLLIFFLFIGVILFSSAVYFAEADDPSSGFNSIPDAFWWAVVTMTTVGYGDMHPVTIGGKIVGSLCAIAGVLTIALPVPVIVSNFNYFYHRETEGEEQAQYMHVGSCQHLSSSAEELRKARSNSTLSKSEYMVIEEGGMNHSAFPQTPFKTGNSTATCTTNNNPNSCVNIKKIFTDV
Kv1.3 potassium channels in Jurkat T lymphocytes, sequence (P22001 whole entry): as the sequence (P22001 whole entry) above

| SMILES | ΔΔG (coupling energy), mutant cycle [1] [kcal/mol] | Equipotent Molar Ration (Analog IC50 /ShK IC50) Rat brain [2] | IC50 Ratio [2] | ΔF [2] | Equipotent Molar Ration (Analog IC50 /ShK IC50) Lymphocyte [3] | reduction of affinity (IC50) for Kv1.3 relative to ShK toxin [3] | washout from the receptor [4] | hKCa4 less sensitive than Kv1.3 [5] [fold] | sensitivity of Kv3.1, in words [6] | Hill coefficient, [125I]-ChTX binding [7] | Hill coefficient, Kv1.3 block [8] | Kv1.2 less sensitive than Kv1.3 [9] [fold] | IC50 ([2]; read-out: IC50 Rat Brain 125I-CTX) [nM] | resistance to proteolysis by porcine pepsin A, pancreatic elastase and subtilisin ([10]; […], 30° C., pH 3.0 (pepsin A), pH 6.5 (elastase, subtilisin)) | cleavage by trypsin-chymotrypsin mixture or thermolysin ([10]; pH 6.5) | sensitivity of Kv1.5, in words [11] | other closely related channels less sensitive than Kv1.3 [12] [fold] |
| --- | --- | --- | --- | --- | --- | --- | --- | --- | --- | --- | --- | --- | --- | --- | --- | --- | --- |
| CCCC[C@@H]1NC(=O)[C@H](CCSC)NC(=O)[C@H](CO)NC(=O)[C@H](Cc2c[nH]cn2)NC(=O)[C@H](CCCCN)NC(=O)[C@@H]2CSSC[C@@H]3NC(=O)[C@H]([C@@H](C)O)NC(=O)[C@H](CCCCN)NC(=O)[C@H](CCCNC(=N)N)NC(=O)[C@H](CSSC[C@H](NC(=O)[C@H](CCCNC(=N)N)NC(=O)[C@H](CO)NC(=O)[C@H](CCCCN)NC(=O)[C@@H]4CCCN4C(=O)[C@H]([C@@H](C)CC)NC(=O)[C@H]([C@@H](C)O)NC(=O)[C@H](CC(=O)O)NC(=O)[C@H]([C@@H](C)CC)NC(=O)[C@@H](NC(=O)[C@H](CO)NC(=O)[C@@H](N)CCCNC(=N)N)CSSC[C@@H](C(=O)O)NC(=O)[C@H]([C@@H](C)O)NC(=O)CNC3=O)C(=O)N[C@@H]([C@@H](C)O)C(=O)N[C@@H](C)C(=O)N[C@@H](Cc3ccccc3)C(=O)N[C@@H](CCC(N)=O)C(=O)N2)NC(=O)[C@H](Cc2ccccc2)NC(=O)[C@H](CO)NC(=O)[C@H](CC(C)C)NC(=O)[C@H](CCCNC(=N)N)NC(=O)[C@H](Cc2ccc(O)cc2)NC1=O [K22Nle] | 0.053 | > 250 | > 250 | > 3.23 | > 23 | more than 23 fold |  |  |  |  |  |  |  |  |  |  |  |
| CC[C@H](C)[C@@H]1NC(=O)[C@@H](NC(=O)[C@H](CO)NC(=O)[C@@H](N)CCCNC(=N)N)CSSC[C@@H](C(=O)O)NC(=O)[C@H]([C@@H](C)O)NC(=O)CNC(=O)[C@@H]2CSSC[C@@H]3NC(=O)[C@H](CCC(N)=O)NC(=O)[C@H](Cc4ccccc4)NC(=O)[C@H](C)NC(=O)[C@H]([C@@H](C)O)NC(=O)[C@H](CSSC[C@H](NC(=O)[C@H](Cc4ccccc4)NC(=O)[C@H](CO)NC(=O)[C@H](CC(C)C)NC(=O)[C@H](CCCNC(=N)N)NC(=O)[C@H](Cc4ccc(O)cc4)NC(=O)[C@H](CCCCN)NC(=O)[C@H](CCSC)NC(=O)[C@H](CO)NC(=O)[C@H](Cc4cnc[nH]4)NC(=O)[C@H](CCCCN)NC3=O)C(=O)N[C@@H](CCCNC(=N)N)C(=O)N[C@@H](CCCCN)C(=O)N[C@@H]([C@@H](C)O)C(=O)N2)NC(=O)[C@H](CCCNC(=N)N)NC(=O)[C@H](CO)NC(=O)[C@H](CCCCN)NC(=O)[C@@H]2CCCN2C(=O)[C@H]([C@@H](C)CC)NC(=O)[C@H]([C@@H](C)O)NC(=O)[C@H](CC(=O)O)NC1=O [ShK] |  |  |  | 0.0 |  |  | binds almost irreversibly | 100 | resistant to the peptide | 0.89±0.17 | close to unity | 100 | 8 | completely resistant to proteolysis | readily cleaved | resistant to the peptide | > 100 |
